Assay results from patent publication US20250304560A1, “MODULATORS OF NLRP3 INFLAMMASOME AND RELATED PRODUCTS AND METHODS” (Neumora Therapeutics, Inc., priority 2022, published 2025).
Like-named read-outs stand apart in the source and are kept apart here.

Legend:
IL-6 = IL-6 AlphaLISA in LPS-primed THP1 macrophages
NLRP3 inflammasome = NLRP3 inflammasome (Homo sapiens, UniProt Q96P20); test: NLRP3 inflammasome activation in THP1 macrophages, IL-1β AlphaLISA
[1] = Homo sapiens, THP-1, read-out: IL-6 Activity (μM), THP1 macrophages, PMA, LPS priming, nigericin 6.7 uM
[2] = IL-1β Activity (nM), THP1 macrophages, PMA, LPS priming, nigericin 6.7 uM activation
[3] = Homo sapiens, THP-1, read-out: IL-6 Activity (μM)

Chain of NLRP3 inflammasome (Q96P20 whole entry): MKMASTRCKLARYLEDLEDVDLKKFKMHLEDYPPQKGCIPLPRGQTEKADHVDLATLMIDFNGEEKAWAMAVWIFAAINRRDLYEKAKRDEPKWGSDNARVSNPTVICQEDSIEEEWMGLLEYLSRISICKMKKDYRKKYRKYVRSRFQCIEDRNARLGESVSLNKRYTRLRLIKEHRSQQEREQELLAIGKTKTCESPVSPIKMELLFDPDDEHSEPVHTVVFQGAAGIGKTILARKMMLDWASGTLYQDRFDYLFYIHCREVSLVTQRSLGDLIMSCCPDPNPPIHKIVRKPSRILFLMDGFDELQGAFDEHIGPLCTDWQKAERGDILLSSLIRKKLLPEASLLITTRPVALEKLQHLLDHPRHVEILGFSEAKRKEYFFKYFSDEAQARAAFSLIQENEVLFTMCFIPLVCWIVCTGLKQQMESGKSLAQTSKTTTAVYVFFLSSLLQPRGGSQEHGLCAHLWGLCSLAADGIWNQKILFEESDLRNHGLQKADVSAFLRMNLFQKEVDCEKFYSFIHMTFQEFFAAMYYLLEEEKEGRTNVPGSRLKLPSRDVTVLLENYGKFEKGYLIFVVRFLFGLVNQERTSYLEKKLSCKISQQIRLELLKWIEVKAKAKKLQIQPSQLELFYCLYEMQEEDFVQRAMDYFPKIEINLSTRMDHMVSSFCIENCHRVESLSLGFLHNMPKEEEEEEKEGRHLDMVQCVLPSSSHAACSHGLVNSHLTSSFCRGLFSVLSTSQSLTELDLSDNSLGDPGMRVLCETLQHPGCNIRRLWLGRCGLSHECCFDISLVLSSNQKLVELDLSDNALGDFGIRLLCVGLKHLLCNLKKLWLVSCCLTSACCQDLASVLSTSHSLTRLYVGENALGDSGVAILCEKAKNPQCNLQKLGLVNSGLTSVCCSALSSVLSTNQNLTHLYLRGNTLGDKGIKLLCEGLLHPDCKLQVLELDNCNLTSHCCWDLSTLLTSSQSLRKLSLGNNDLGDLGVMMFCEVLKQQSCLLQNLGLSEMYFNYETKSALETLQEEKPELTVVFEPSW

| SMILES | IC50 (IL-6; [1]) [µM] | IC50 (NLRP3 inflammasome; [2]) [nM] | IC50 (IL-6; [3]) [µM] | IC50 (NLRP3 inflammasome) [nM] | IC50 (IL-6; read-out: IL-6 Activity, THP1 macrophages, PMA, LPS priming, nigericin 6.7 uM) [µM] |
| --- | --- | --- | --- | --- | --- |
| CCN1CCC[C@@H](Nc2cc(C)c(-c3ccccc3O)nn2)C1 [compound 56] | > 10 | < 1 |  |  |  |
| Cc1cc(N[C@@H]2CC[C@@H](C(=O)O)N(C)C2)nnc1-c1ccccc1O [compound 95] | > 10 | > 1000 |  |  |  |
| Cc1cc(NCC23CC(CO2)C3)nnc1-c1ccccc1O [compound 118] |  |  | > 10 | > 1000 |  |
| Cc1cc(N[C@H]2CN(C)CC[C@H]2F)nnc1-c1ccc(F)cc1O [compound 49] | > 10 | 10 to 100 |  |  |  |
| CCc1cc(C)c(-c2ccc(N[C@@H]3CCCN(C)C3)nn2)c(O)c1 [compound 12] | > 10 | < 1 |  |  |  |
| Cc1cc(C[C@@H]2CCCN(C)C2)nnc1-c1ccc(C(F)(F)F)cc1O [compound 37] |  |  | > 10 | 500 to 1000 |  |
| Cc1cc(-c2nnc(N[C@@H]3CCCN(C)C3)cc2C)c(O)cc1C(F)(F)F [compound 76] | 5 to 10 | 1 to 10 |  |  |  |
| Cc1cc(NC[C@H]2CCCO2)nnc1-c1ccccc1O [compound 116] |  |  | > 10 | > 1000 |  |
| Cc1ccc(-c2cc(C)c(N[C@@H]3CCCN(C)C3)nn2)c(O)c1 [compound 82] | < 1 | 10 to 100 |  |  |  |
| Cc1cc(N[C@H]2CN(C)CC[C@@H]2F)nnc1-c1ccc(F)cc1O [compound 48] | > 10 | 10 to 100 |  |  |  |
| Cc1cc(N(C)[C@@H]2CCCN(C)C2)nnc1-c1ccc(F)c(C)c1O [compound 64] | > 10 | 1 to 10 |  |  |  |
| Cc1cc(-c2c(C)cccc2O)nnc1N[C@@H]1CCCN(C)C1 [compound 78] | > 10 | 1 to 10 |  |  |  |
| Cc1cc(NC[C@H]2COCCO2)nnc1-c1ccccc1O [compound 119] |  |  |  | > 1000 |  |
| Cc1cc(-c2ccccc2O)nnc1N[C@@H]1CCCN(C)C1 [compound 8] | > 10 | 1 to 10 |  |  |  |
| Cc1ccc(O)c(-c2nnc(N[C@@H]3CCCN(C)C3)cc2C)c1 [compound 68] | > 10 | 10 to 100 |  |  |  |
| Cc1cc(C[C@H]2CCCN(C)C2)nnc1-c1ccc(F)cc1O [compound 106, (R)-5-fluoro-2-(4-methyl-6-((1-methylpiperidin-3-yl)methyl)pyridazin-3-yl) phenol] |  |  | > 10 | > 1000 |  |
| CN1CC[C@@H](N(C)c2ccc(-c3ccccc3O)nn2)C1 [compound 33] |  |  | > 10 | > 1000 |  |
| Cc1cc(-c2c(C)cc(F)cc2O)nnc1N[C@@H]1CCCN(C)C1 [compound 84] | > 10 | 1 to 10 |  |  |  |
| Cc1cc(-c2cc(C)c(N[C@@H]3CCCN(C)C3)nn2)c(O)cc1F [compound 79] | < 1 | 100 to 500 |  |  |  |
| Cc1cc(-c2ccc(N(C)[C@@H]3CCCN(C)C3)nn2)c(O)cc1F [compound 25] | 1 to 5 | > 1000 |  |  |  |

| SMILES | IC50 (IL-6; [1]) [µM] | IC50 (NLRP3 inflammasome; [2]) [nM] | IC50 (IL-6; [3]) [µM] | IC50 (NLRP3 inflammasome) [nM] | IC50 (IL-6; read-out: IL-6 Activity, THP1 macrophages, PMA, LPS priming, nigericin 6.7 uM) [µM] |
| --- | --- | --- | --- | --- | --- |
| Cc1cc(-c2ccccc2O)nnc1N[C@@H]1CCCN(CCF)C1 [compound 85] | > 10 | > 1000 |  |  |  |
| Cc1cc(N[C@@H]2CCCN(C)C2)nnc1-c1ccc(F)c(C)c1O [compound 63] |  | < 1 |  |  | > 10 |
| Cc1cc(NC[C@@H]2CCC(F)(F)C2)nnc1-c1ccccc1O [compound 114] |  |  | > 10 | > 1000 |  |
| Cc1cc(-c2nnc(N(C)[C@@H]3CCCN(C)C3)cc2C)c(O)cc1F [compound 66] | 5 to 10 | 100 to 500 |  |  |  |
| CCN1CCC[C@@H](Nc2ccc(-c3c(C)cc(F)cc3O)nn2)C1 [compound 60] | > 10 | < 1 |  |  |  |
| Cc1ccc(O)c(-c2ccc(N(C)[C@@H]3CCCN(C)C3)nn2)c1 [compound 19] | 5 to 10 | > 1000 |  |  |  |
| CN1CCC[C@@H](N(C)c2ccc(-c3ccc(F)cc3O)nn2)C1 [compound 20] | 5 to 10 | > 1000 |  |  |  |
| Cc1cc(C[C@@H]2CCCN(C)C2)nnc1-c1ccccc1O [compound 70] |  |  | > 10 | 10 to 100 |  |
| CCN1CCC[C@@H](Nc2cc(C)c(-c3ccc(F)cc3O)nn2)C1 [compound 58] | 5 to 10 | < 1 |  |  |  |
| Cc1c(F)ccc(-c2ccc(N[C@@H]3CCCN(C)C3)nn2)c1O [compound 10] | 5 to 10 | 10 to 100 |  |  |  |
| Cc1cc(-c2ccc(F)cc2O)nnc1N[C@@H]1CCCN(C)C1 [compound 77] | > 10 | 10 to 100 |  |  |  |
| Cc1cc(-c2ccc(N[C@@H]3CCCN(C)C3)nn2)c(O)cc1F [compound 9] | > 10 | 100 to 500 |  |  |  |
| Cc1cc(N[C@@H]2CCCN(C)C2)nnc1-c1c(C)cc(F)cc1O [compound 62] | > 10 | 1 to 10 |  |  |  |
| Cc1cc(N[C@@H]2CCCN(C(C)C)C2)nnc1-c1ccccc1O [compound 57] | 5 to 10 | < 1 |  |  |  |
| COC(C)(C)C(=O)Nc1cc(C)c(-c2ccccc2O)nn1 [compound 123] |  |  | > 10 | > 1000 |  |
| Cc1cc(C2CC2)cc(O)c1-c1ccc(N[C@@H]2CCCN(C)C2)nn1 [compound 13] |  |  | > 10 | 1 to 10 |  |
| Cc1cc(-c2ccc(Cl)cc2O)nnc1N[C@@H]1CCCN(C)C1 [compound 83] |  | 1 to 10 |  |  |  |
| Cc1cc(-c2ccc(C(F)(F)F)cc2O)nnc1O[C@@H]1CCCN(C)C1 [compound 98] |  |  | > 10 | 100 to 500 |  |
| Cc1cc(-c2ccc(F)cc2O)nnc1O[C@@H]1CCCN(C)C1 [compound 35] |  |  | 5 to 10 | 10 to 100 |  |
| Cc1cc(C[C@H]2CCCN(C)C2)nnc1-c1ccccc1O [compound 105] |  |  | > 10 | > 1000 |  |

| SMILES | IC50 (IL-6; [1]) [µM] | IC50 (NLRP3 inflammasome; [2]) [nM] | IC50 (IL-6; [3]) [µM] | IC50 (NLRP3 inflammasome) [nM] | IC50 (IL-6; read-out: IL-6 Activity, THP1 macrophages, PMA, LPS priming, nigericin 6.7 uM) [µM] |
| --- | --- | --- | --- | --- | --- |
| Cc1cc(N(C)[C@@H]2CCCN(C)C2)nnc1-c1ccc(C2CC2)cc1O [compound 28] |  |  | < 1 | < 1 |  |
| Cc1cc(-c2ccc(C(F)(F)F)cc2O)nnc1N[C@@H]1CCCN(C)C1 [compound 74] | > 10 |  |  |  |  |
| Cc1cc(N[C@@H]2CCCN(C(C)C)C2)nnc1-c1ccc(F)cc1O [compound 59] | 5 to 10 | < 1 |  |  |  |
| Cc1cc(N[C@@H]2CCCN(CCF)C2)nnc1-c1ccc(F)cc1O [compound 44] | > 10 | 1 to 10 |  |  |  |
| CN1CC[C@@H](Nc2ccc(-c3ccc(F)cc3O)nn2)C1 [compound 30] | > 10 | > 1000 |  |  |  |
| Cc1cc(C[C@@H]2CCCN(C)C2)nnc1-c1ccc(F)cc1O [compound 36, (S)-5-fluoro-2-(4-methyl-6-((1-methylpiperidin-3-yl)methyl)pyridazin-3-yl) phenol] |  |  | > 10 | 10 to 100 |  |
| Cc1cccc(-c2ccc(N[C@@H]3CCCN(C)C3)nn2)c1O [compound 5] | > 10 | 1 to 10 |  |  |  |
| CCc1ccc(-c2ccc(N(C)[C@@H]3CCCN(C)C3)nn2)c(O)c1 [compound 27] | > 10 | 10 to 100 |  |  |  |
| Cc1cc(NC[C@H]2CCC(F)(F)C2)nnc1-c1ccccc1O [compound 113] |  |  | > 10 | > 1000 |  |
| Cc1cc(N[C@@H]2CC[C@@H](C(=O)O)NC2)nnc1-c1ccccc1O [compound 94] | > 10 | > 1000 |  |  |  |
| Cc1cc(N[C@@H]2CCCN(C)C2)nnc1-c1c(C)cccc1O [compound 69] | 5 to 10 | 1 to 10 |  |  |  |
| Cc1cc(N[C@@H]2CCCN(C)C2)nnc1-c1ccc(C(=O)O)cc1O [compound 92] | > 10 | 10 to 100 |  |  |  |
| Cc1cc(N[C@@H]2CCCN(CCF)C2)nnc1-c1ccccc1O [compound 39] | > 10 | 10 to 100 |  |  |  |
| Cc1cc(N[C@@H]2C[C@H](F)CN(C)C2)nnc1-c1ccccc1O [compound 42] | > 10 | 10 to 100 |  |  |  |
| Cc1cc(N[C@H]2CN(C)CC[C@@H]2F)nnc1-c1ccccc1O [compound 43] | > 10 | 10 to 100 |  |  |  |
| Cc1cc(F)cc(O)c1-c1ccc(O[C@@H]2CCCN(C)C2)nn1 [compound 72] |  |  | > 10 | 10 to 100 |  |
| Cc1cc(N2CCC[C@@H](N(C)C)C2)nnc1-c1ccccc1O [compound 111] |  |  | > 10 | 100 to 500 |  |
| Cc1cc(N[C@@H]2C[C@@H](F)CN(C)C2)nnc1-c1ccccc1O [compound 41] |  | 10 to 100 |  |  |  |
| Cc1cc(C(F)(F)F)cc(O)c1-c1ccc(N[C@@H]2CCCN(C)C2)nn1 [compound 75] |  |  | > 10 |  |  |
| CCc1ccc(-c2cc(C)c(N[C@@H]3CCCN(C)C3)nn2)c(O)c1 [compound 16] |  | 1 to 10 |  |  |  |
